Measurements reported in ChEMBL document CHEMBL1143776, “Thioimidoyl furanosides as first inhibitors of the alpha-L-arabinofuranosidase AbfD3” (Bioorg Med Chem Lett, 2007).

assay: Inhibition of AbfD3

IC50, < 100 µM:
OC[C@@H]1O[C@@H](Sc2nc3ccccc3s2)[C@H](O)[C@H]1O, OC[C@@H]1O[C@@H](Sc2ccccn2)[C@H](O)[C@H]1O, OC[C@@H]1O[C@@H](Sc2nccs2)[C@H](O)[C@H]1O, OC[C@@H]1O[C@@H](Sc2nc3ccccc3[nH]2)[C@H](O)[C@H]1O, OC[C@@H]1O[C@@H](Sc2ncccn2)[C@H](O)[C@H]1O
